From US9789187B2, “Stable pharmaceutical composition for atherosclerosis” (Cadila Pharmaceuticals Limited, priority 2009, dated 2017)
Read-outs that look alike come from different tables or passages of the source.

Experiments:
Urinary thromboxane = Urinary thromboxane levels (antiplatelet activity); assay type: in vivo, human; conditions: group taking aspirin vs group taking MCP
[1] = Randomized controlled study of heart rate over 24 hrs in normal healthy volunteers; assay type: in vivo; conditions: seen at 4.5 hrs; 16 in each group; heart rate measured for 24 hrs
Procedure: All received a pill a day. […] The heart rate was measured for 24 hrs.

[2] = cited from earlier work
[3] = Clinical trial for efficacy: reduction in sitting systolic and diastolic blood pressure; assay type: in vivo, human; design: Effect on Systolic B.P., Hypertensive / Effect on Systolic B.P., Non hypertensive / Effect on Diastolic B.P., Hypertensive / Effect on Diastolic B.P., Non hypertensive / Effect on Systolic B.P., Diabetics / Effect on Systolic B.P., Non diabetics / Effect on Diastolic B.P., Diabetics / Effect on Diastolic B.P., Non diabetics: unit not given here
Procedure: Reduction in sitting diastolic and sitting systolic blood pressure was measured in a cohort of population who received multi-component pill (n=392) or a pill containing three antihypertensive drugs (n=196).

[4] = Cross over randomized two period pharmacokinetic study, single MCP (test) vs market single ingredient pill (reference)
[5] = human, in vivo
[6] = Randomized double blind controlled study of change in lipid profile (3 months); assay type: in vivo, human; conditions: simvastatin 20 mg daily for 3 months; 198 subjects alone, 406 as multi-component composition
Text: The multi-component pharmaceutical composition included The change in lipid profile as compared to baseline is provided in a table below.

[7] = multi-component pill n=392, hydrochlorothiazide n=199, two drugs n=207,205,209, three drugs n=196
[8] = analyte of the table title after market single ingredient pill (reference)
[9] = analyte of the table title after single MCP (test)
[10] = MCP (test) / single ingredient pill (reference)

CC(=O)Oc1ccccc1C(=O)O [Aspirin, acetylsalicylic acid]
Urinary thromboxane levels (Urinary thromboxane): identical | change in SGPT by two fold, S. Potassium above 5.5 and increase in serum creatinine by 50% (aspirin 100 mg (n=172) compared with MCP (n=334), daily for three months): marginally higher | All reported Adverse events (human, in vivo, 3 months): 163 | Gastritis/dyspepsia (serious adverse leading to discontinuation) (human, in vivo, 3 months): 1.4%

CC(C)NCC(O)COc1ccc(CC(N)=O)cc1 (centres unmarked) [Atenolol]
Peak decrease in heart rate [1]: 5.38

COc1ccc([C@@H]2Sc3ccccc3N(CCN(C)C)C(=O)[C@@H]2OC(C)=O)cc1 [Diltiazem]
increase of AUC of simvastatin (in words) ([2]; co-administered drug raises simvastatin AUC): two fold

NS(=O)(=O)c1cc2c(cc1Cl)NCNS2(=O)=O [Hydrochlorothiazide]
Effect on Diastolic B.P., Diabetics ([3]; diabetics): 1.5 | Effect on Systolic B.P., Diabetics ([3]; diabetics): 3.4 | Effect on Diastolic B.P., Hypertensive ([3]; hypertensives): 2.5 | Effect on Systolic B.P., Hypertensive ([3]; hypertensives): 3.0 | Mean change in sitting diastolic blood pressure [3, 7]: 1.2 mm of Hg | Mean change in sitting systolic blood pressure [3, 7]: 2.2 mm of Hg | Effect on Diastolic B.P., Non diabetics ([3]; nondiabetics): 1.1 | Effect on Systolic B.P., Non diabetics ([3]; nondiabetics): 1.6 | Effect on Diastolic B.P., Non hypertensive ([3]; nonhypertensives): 0.5 | Effect on Systolic B.P., Non hypertensive ([3]; nonhypertensives): 1.8 | Dizziness and hypotension (serious adverse leading to discontinuation) (Thiazide n=199, MCP n=392): 3.3% | All reported Adverse events (three month trial, groups of 205 (aspirin, thiazide, simvastatin alone), 412 (multi-component pill)): 161 | Ln AUC0-t, Ref. Geo LSM [4, 8]: 621.884 ng·h/mL | Ln AUCo-∞, Ref. Geo LSM [4, 8]: 668.583 ng·h/mL | Ln Cmax, Ref. Geo LSM [4, 8]: 92.388 ng/mL | Ln AUC0-t, Test Geo LSM [4, 9]: 579.174 ng·h/mL | Ln AUCo-∞, Test Geo LSM [4, 9]: 619.693 ng·h/mL | Ln Cmax, Test Geo LSM [4, 9]: 93.437 ng/mL

COC(=O)C1=C(C)NC(C)=C(C(=O)OCC(C)C)C1c1ccccc1[N+](=O)[O-] (centres unmarked) [Nisoldipine]
increase of AUC of telmisartan ([2]; co-administered drug raises telmisartan AUC): 132%

CCOC(=O)[C@H](CCc1ccccc1)N[C@@H](C)C(=O)N1[C@H](C(=O)O)C[C@@H]2CCC[C@@H]21 [Ramipril]
Cough (serious adverse leading to discontinuation) (human, in vivo, 3 months): 1.4% | Ln AUC0-t, Ratio (T/R) * 100 [5]: 109.98 | Ln AUCo-∞, Ratio (T/R) * 100 [5]: 109.09 | Ln Cmax, Ratio (T/R) * 100 [5]: 118.51

C[C@H](N[C@@H](CCc1ccccc1)C(=O)O)C(=O)N1[C@H](C(=O)O)C[C@@H]2CCC[C@@H]21 [Ramiprilat]
Ln AUC0-t, Ratio (T/R) * 100 [5]: 105.31 | Ln AUCo-∞, Ratio (T/R) * 100 [5]: 105.93 | Ln Cmax, Ratio (T/R) * 100 [5]: 117.50

O=C(O)c1ccccc1O [Salicylic Acid]
Ln AUC0-t, Ratio (T/R) * 100 [4, 10]: 117.54 | Ln AUCo-∞, Ratio (T/R) * 100 [4, 10]: 117.82 | Ln Cmax, Ratio (T/R) * 100 [4, 10]: 99.48

CCC(C)(C)C(=O)O[C@H]1C[C@@H](C)C=C2C=C[C@H](C)[C@H](CC[C@@H]3C[C@@H](O)CC(=O)O3)[C@H]21 [Simvastatin]
change in Apo B compared to baseline [6]: 20.37% | change in LDL compared to baseline [6]: 26.83% | change in Total Cholesterol compared to baseline [6]: 17.95%
